Results taken from patent US12281122B1, “PI3K inhibitors” (Cogent Biosciences, Inc., priority 2023, dated 2025).

Legend:
[1] = tested on: T47D (PI3Kα-H1047R) cell line; assay: HTRF phospho-AKT(S473) cell assay in T47D cells; format: cell-based, human
Procedure: (§1) Compounds in the present disclosure were tested in a cell based HTRF phospho-AKT(S473) (CisBio/Revvity) assay in human breast cancer cell lines as a measurement of PIK3CA activity through measuring AKT, a downstream effector. The activity of mutant PI3Kα-H1047R and PI3Kα-Wild Type was measured in the T47D (PI3Kα-H1047R) and SKBR3 (PI3Kα-Wild Type) cell lines, respectively. T47D cells were plated at 20,000 cells per well in 50 μL in RPMI medium supplemented with 10% FBS and 0.2 units/mL insulin, in 384 well plates. SKBR3 cells were plated at 25,000 cells per well in 50 μL in McCoy's 5A medium supplemented with 10% FBS, in 384 well plates. Cells were plated using a Combi Multidrop reagent dispenser (ThermoFisher), and placed in 5% CO2, 37° C. incubator overnight to adhere.
(§2) The next day, cells were treated with either compounds or vehicle (DMSO) in a 12-fold dose response curve of 1:3 dilutions, with 5 μM and 10 μM as the top concentrations for the T47D and SKBR3 cell lines, respectively. Compound treatment was facilitated via the D300e digital dispenser (Tecan), with a maximum DMSO concentration of 0.5%. Following compound addition, cell plates were incubated for 2 hours in 5% CO2, 37° C. incubator. The SKBR3 cells were stimulated and treated with 70 ng/ml PDGF-BB ligand (ThermoFisher) for the remaining 15 minutes of the incubation. Following compound incubation, compound and media was aspirated from the cells and 25 μL of supplemented lysis buffer was added per well, and incubated for 45 minutes at room temperature, shaking at 600 rpm. Next, 16 μL of cell lysate was added to a 384 well low volume ProxyPlate (Perkin Elmer/Revvity) mixed with 4 μL of HTRF antibodies (1:1 Eu Cryptate+d2 Cryptate). HTRF supplemented lysis buffer and antibody reagents were used from the phosphor-AKT(S473) HTRF assay kit (CisBio/Revvity), following manufacturers protocol recommendations. Plates were sealed and incubated at 4° C. overnight.
(§3) The following day, plates were centrifuged for 1 minute at 1000 rpm, and read on a PHERAstar plate reader. IC50 values were calculated using Spotfire software.

[2] = tested on: SKBR3 (PI3Kα-Wild Type) cell line; assay: HTRF phospho-AKT(S473) cell assay in SKBR3 cells; format: cell-based, human
Procedure: as §1, §2, §3

[3] = Homo sapiens; HTRF phospho-AKT(S473), T47D (PI3Kα-H1047R) cells, 2 hours compound incubation
[4] = Homo sapiens, SK-BR-3; HTRF phospho-AKT(S473), SKBR3 (PI3Kα-Wild Type) cells, 2 hours compound incubation, PDGF-BB stimulated
[5] = Homo sapiens; T47D (PI3Kα-H1047R) cells, HTRF phospho-AKT(S473), 2 hours compound incubation
[6] = Homo sapiens, SK-BR-3; SKBR3 (PI3Kα-Wild Type) cells, HTRF phospho-AKT(S473), 2 hours compound incubation, PDGF-BB stimulated

Structure (SMILES) | IC50 [1, 3] [nM] | IC50 [2, 4] [nM] | IC50 [1, 5] [nM] | IC50 [2, 6] [nM]
Cc1cc([C@@H](C)Nc2ccc(Cl)nc2C(=O)NS(C)(=O)=O)c2nc(N3CCN(c4ncc(C#N)cc4C)CC3)n(C)c(=O)c2c1 [Compound 184, (R)-6-chloro-3-((1-(2-(4-(5-cyano-3-methylpyridin-2-yl)piperazin-1-yl)-3,6-dimethyl-4-oxo-3,4-dihydroquinazolin-8-yl)ethyl)amino)-N-(methylsulfonyl) picolinamide] |  |  | < 250 | 1000 to 5000
Cc1cc([C@@H](C)Nc2ccc(Cl)nc2C(=O)NS(C)(=O)=O)c2nc(N3CCC(c4ccn(C5CC5)n4)CC3)n(C)c(=O)c2c1 [Compound 267, (R)-6-chloro-3-((1-(2-(4-(1-cyclopropyl-1H-pyrazol-3-yl)piperidin-1-yl)-3,6-dimethyl-4-oxo-3,4-dihydroquinazolin-8-yl)ethyl)amino)-N-(methylsulfonyl) picolinamide] |  |  | < 250 | 1000 to 5000
Cc1cc([C@@H](C)Nc2ccc(Cl)nc2C(=O)NS(C)(=O)=O)c2nc(N3C[C@@H]4[C@H](C3)[C@H]4c3ccc(C)nc3)n(C)c(=O)c2c1 [Compound 449, 6-chloro-3-(((R)-1-(3,6-dimethyl-2-((1R,5S,6S)-6-(6-methylpyridin-3-yl)-3-azabicyclo[3.1.0]hexan-3-yl)-4-oxo-3,4-dihydroquinazolin-8-yl)ethyl)amino)-N-(methylsulfonyl) picolinamide] | 250 to 500 | ≥ 5000 |  | 
Cc1cc([C@@H](C)Nc2ccc(Cl)nc2C(=O)NS(C)(=O)=O)c2nc(N3CCC(c4cnc(C)o4)CC3)n(C)c(=O)c2c1 [Compound 521, (R)-6-chloro-3-((1-(3,6-dimethyl-2-(4-(2-methyloxazol-5-yl)piperidin-1-yl)-4-oxo-3,4-dihydroquinazolin-8-yl)ethyl)amino)-N-(methylsulfonyl) picolinamide] | < 250 | 1000 to 5000 |  | 
Cc1cc([C@@H](C)Nc2ccc(Cl)nc2C(=O)NS(C)(=O)=O)c2nc(N3CCC(c4ccnn4CC(F)(F)F)CC3)n(C)c(=O)c2c1 [Compound 488, (R)-6-chloro-3-((1-(3,6-dimethyl-4-oxo-2-(4-(1-(2,2,2-trifloroethyl)-1H-pyrazol-5-yl)piperidin-1-yl)-3,4-dihydroquinazolin-8-yl)ethyl)amino)-N-(methylsulfonyl) picolinamide] | < 250 | 1000 to 5000 |  | 
Cc1cc([C@@H](C)Nc2ccc(Cl)nc2C(=O)NS(C)(=O)=O)c2nc(N3C[C@@H]4[C@H](C3)[C@H]4c3ncc(C)o3)n(C)c(=O)c2c1 [Compound 653, 6-chloro-3-(((R)-1-(3,6-dimethyl-2-((1R,5S,6R)-6-(5-methyloxazol-2-yl)-3-azabicyclo[3.1.0]hexan-3-yl)-4-oxo-3,4-dihydroquinazolin-8-yl)ethyl)amino)-N-(methylsulfonyl) picolinamide] | 250 to 500 | 1000 to 5000 |  | 
Cc1cnc(C2CCN(c3nc4c([C@@H](C)Nc5ccc(Cl)nc5C(=O)NS(C)(=O)=O)cc(C)cc4c(=O)n3C)CC2)nc1 [Compound 404, (R)-6-chloro-3-((1-(3,6-dimethyl-2-(4-(5-methylpyrimidin-2-yl)piperidin-1-yl)-4-oxo-3,4-dihydroquinazolin-8-yl)ethyl)amino)-N-(methylsulfonyl) picolinamide] |  |  | < 250 | 1000 to 5000
CCn1ncc(F)c1C1CCN(c2nc3c([C@@H](C)Nc4ccc(Cl)nc4C(=O)NS(C)(=O)=O)cc(C)cc3c(=O)n2C)CC1 [Compound 467, (R)-6-chloro-3-((1-(2-(4-(1-ethyl-4-fluoro-1H-pyrazol-5-yl)piperidin-1-yl)-3,6-dimethyl-4-oxo-3,4-dihydroquinazolin-8-yl)ethyl)amino)-N-(methylsulfonyl) picolinamide] | < 250 | ≥ 5000 |  | 
Cc1cc([C@@H](C)Nc2ccc(Cl)nc2C(=O)NS(C)(=O)=O)c2nc(N3CCc4c(cnn4C4COC4)C3)n(C)c(=O)c2c1 [Compound 335, (R)-6-chloro-3-((1-(3,6-dimethyl-2-(1-(oxetan-3-yl)-1,4,6,7-tetrahydro-5H-pyrazolo[4,3-c]pyridin-5-yl)-4-oxo-3,4-dihydroquinazolin-8-yl)ethyl)amino)-N-(methylsulfonyl) picolinamide] |  |  | < 250 | 1000 to 5000
Cc1cc([C@@H](C)Nc2ccc(Cl)nc2C(=O)NS(C)(=O)=O)c2nc(N3Cc4cn(-c5ccnc(C)c5)nc4C3)n(C)c(=O)c2c1 [Compound 146, (R)-6-chloro-3-((1-(3,6-dimethyl-2-(2-(2-methylpyridin-4-yl)-2,6-dihydropyrrolo[3,4-c]pyrazol-5(4H)-yl)-4-oxo-3,4-dihydroquinazolin-8-yl)ethyl)amino)-N-(methylsulfonyl) picolinamide] |  |  | < 250 | 1000 to 5000
Cc1cc([C@@H](C)Nc2ccc(Cl)nc2C(=O)NS(C)(=O)=O)c2nc(N3CCC[C@@H](Oc4cccnc4)C3)n(C)c(=O)c2c1 [Compound 343, 6-chloro-3-(((R)-1-(3,6-dimethyl-4-oxo-2-((R)-3-(pyridin-3-yloxy)piperidin-1-yl)-3,4-dihydroquinazolin-8-yl)ethyl)amino)-N-(methylsulfonyl) picolinamide] |  |  | 250 to 500 | ≥ 5000
Cc1cc([C@@H](C)Nc2ccc(Cl)nc2C(=O)NS(C)(=O)=O)c2nc(N3C[C@@H]4[C@H](C3)[C@H]4c3nn(C)cc3C)n(C)c(=O)c2c1 [Compound 415, 6-chloro-3-(((R)-1-(2-((1R,5S,6R)-6-(1,4-dimethyl-1H-pyrazol-3-yl)-3-azabicyclo[3.1.0]hexan-3-yl)-3,6-dimethyl-4-oxo-3,4-dihydroquinazolin-8-yl)ethyl)amino)-N-(methylsulfonyl) picolinamide] |  |  | < 250 | 1000 to 5000

The remaining lines, values ahead:

IC50 [1, 3] [nM] | IC50 [2, 4] [nM] | IC50 [1, 5] [nM] | IC50 [2, 6] [nM] | Structure (SMILES)
250 to 500 | ≥ 5000 |  |  | Cc1cc([C@@H](C)Nc2ccc(Cl)nc2C(=O)NS(C)(=O)=O)c2nc(-c3ccc(OC4CCN(CC(F)F)CC4)nc3)n(C)c(=O)c2c1 [Compound 815, (R)-6-chloro-3-((1-(2-(6-((1-(2,2-difluoroethyl)piperidin-4-yl)oxy)pyridin-3-yl)-3,6-dimethyl-4-oxo-3,4-dihydroquinazolin-8-yl)ethyl)amino)-N-(methylsulfonyl) picolinamide]
250 to 500 | ≥ 5000 |  |  | COc1ccccc1-n1cc2c(n1)CN(c1nc3c([C@@H](C)Nc4ccc(Cl)nc4C(=O)NS(C)(=O)=O)cc(C)cc3c(=O)n1C)C2 [Compound 705, (R)-6-chloro-3-((1-(2-(2-(2-methoxyphenyl)-2,6-dihydropyrrolo[3,4-c]pyrazol-5(4H)-yl)-3,6-dimethyl-4-oxo-3,4-dihydroquinazolin-8-yl)ethyl)amino)-N-(methylsulfonyl) picolinamide]
< 250 | 1000 to 5000 |  |  | Cc1cc([C@@H](C)Nc2ccc(Cl)nc2C(=O)NS(C)(=O)=O)c2nc(N3CC[C@H](c4ccnc(C)c4)C3)n(C)c(=O)c2c1 (relative stereo) [Compound 769, 6-chloro-3-(((R)-1-(3,6-dimethyl-2-((R*)-3-(2-methylpyridin-4-yl)pyrrolidin-1-yl)-4-oxo-3,4-dihydroquinazolin-8-yl)ethyl)amino)-N-(methylsulfonyl) picolinamide]
250 to 500 | ≥ 5000 |  |  | Cc1cc([C@@H](C)Nc2ccc(Cl)nc2C(=O)NS(C)(=O)=O)c2nc(N3Cc4cn(-c5ncccc5C)nc4C3)n(C)c(=O)c2c1 [Compound 701, (R)-6-chloro-3-((1-(3,6-dimethyl-2-(2-(3-methylpyridin-2-yl)-2,6-dihydropyrrolo[3,4-c]pyrazol-5(4H)-yl)-4-oxo-3,4-dihydroquinazolin-8-yl)ethyl)amino)-N-(methylsulfonyl) picolinamide]
250 to 500 | 1000 to 5000 |  |  | Cc1cc([C@@H](C)Nc2ccc(Cl)nc2C(=O)NS(C)(=O)=O)c2nc(-c3ccc(-c4ccn(C)n4)cn3)n(C)c(=O)c2c1 [Compound 838, (R)-6-chloro-3-((1-(3,6-dimethyl-2-(5-(1-methyl-1H-pyrazol-3-yl)pyridin-2-yl)-4-oxo-3,4-dihydroquinazolin-8-yl)ethyl)amino)-N-(methylsulfonyl) picolinamide]
< 250 | 1000 to 5000 |  |  | Cc1cc([C@@H](C)Nc2ccc(Cl)nc2C(=O)NS(C)(=O)=O)c2nc(-c3ccc4nn(C)nc4c3)n(C)c(=O)c2c1 [Compound 781, (R)-6-chloro-3-((1-(3,6-dimethyl-2-(2-methyl-2H-benzo[d][1,2,3]triazol-5-yl)-4-oxo-3,4-dihydroquinazolin-8-yl)ethyl)amino)-N-(methylsulfonyl) picolinamide]
